Experimental data reported in patent US5190741A, “Agents for diagnosing and treating melanomas, aromatic halogenated derivatives usable as such agents and their preparation” (Institut National de la Sante et de la Recherche Medicale …, priority 1989, dated 1993).

Legend:
[1] = test system: Dau amelanic human melanoma; test: Tissue distribution in Swiss nu/nu SSCUP mice bearing Dau; format: in vivo
Protocol: The study of the tissue distribution of the ^125 I labelled compounds was performed in mice bearing grafted melanomas (cf. autoradiograms above). […] The animals are sacrificed at different time intervals of 1 to 24 hours after the injection. The blood is collected and the principal organs are excised. Aliquots are weighed and the radioactivity of the samples is measured in a […] 1191 counter (analytic tracer). The counting yield for iodine 125 is 60%. The results are expressed: as a percentage of the injected dose bound per g of tissue (% ID/g); in the form of the ratios [formula] This ratio reflects more precisely the selectivity of a molecule for an organ (tables 2, 4, 6, 8, 10 and 12).

[2] = test system: A 431 (tumor of the vulva); test: Scintillation imaging (specificity), nu/nu SSCUP nude mice; format: in vivo; conditions: after injection of A
Description: (§1) The mice bearing grafted tumors are anesthetized by the i.p. injection of sodium pentobarbital 1/5 and immobilized under a scintillation camera (Gammatome II, CGR) equipped with a pinhole 3-360 collimator, sensitivity 3.2 10^-4.

[3] = test system: SW 948 (adenocarcinoma of the colon); test: as above; format: in vivo; conditions: after injection of A
Description: as §1

[4] = test system: male nu/nu SSCUP nude mice bearing heterotransplants (Beu melanoma); test: LD50 determination, i.v. (Karber and Behrens); conditions: mouse, in vivo, iv
Description: (§2) The determination of the LD50 is made in the mouse after i.v. injection of the molecules according to the methodology described by Karber and Behrens.
(§3) male nu/nu SSCUP nude mice bearing heterotransplants of human melanomas.

[5] = LD50 determination, i.v. (Karber and Behrens); conditions: mouse, in vivo, iv
Description: as §2, §3

CCNCCNC(=O)c1ccc(I)cc1 [Derivative B, N-(2-ethylaminoethyl) 4-iodo benzamide]
intratumoral concentrations compared with A ([1]; 4 to 6 h, Dau): slightly higher
brain/blood ratio ([1]; 1 h): 1,44 ± 0,069
eye/blood ratio ([1]; 1 h): 0,57 ± 0,011
intestine/blood ratio ([1]; 1 h): 3,44 ± 0,231
kidney/blood ratio ([1]; 1 h): 9,10 ± 0,286
liver/blood ratio ([1]; 1 h): 5,56 ± 0,225
lungs/blood ratio ([1]; 1 h): 6 ± 0,353
muscle/blood ratio ([1]; 1 h): 1,17 ± 0,040
pancreas/blood ratio ([1]; 1 h): 3,20 ± 0,099
plasma/blood ratio ([1]; 1 h): 0,80 ± 0,017
spleen/blood ratio ([1]; 1 h): 2,84 ± 0,091
stomach/blood ratio ([1]; 1 h): 2,66 ± 0,101
submaxillary glands/blood ratio ([1]; 1 h): 4,82 ± 0,285
tumor/blood ratio ([1]; 1 h): 1,33 ± 0,015
brain/blood ratio ([1]; 2 h): 1,43 ± 0,261
eye/blood ratio ([1]; 2 h): 0,55 ± 0,052
intestine/blood ratio ([1]; 2 h): 2,87 ± 0,34
kidney/blood ratio ([1]; 2 h): 7,00 ± 1,03
liver/blood ratio ([1]; 2 h): 3,62 ± 0,68
lungs/blood ratio ([1]; 2 h): 6,33 ± 1,166
muscle/blood ratio ([1]; 2 h): 0,98 ± 0,182
pancreas/blood ratio ([1]; 2 h): 2,42 ± 0,36
plasma/blood ratio ([1]; 2 h): 0,89 ± 0,068
spleen/blood ratio ([1]; 2 h): 2,31 ± 0,36
stomach/blood ratio ([1]; 2 h): 3,40 ± 0,694
submaxillary glands/blood ratio ([1]; 2 h): 4,48 ± 0,220
tumor/blood ratio ([1]; 2 h): 1,39 ± 0,103
brain/blood ratio ([1]; 4 h): 2,21 ± 0,304
eye/blood ratio ([1]; 4 h): 0,71 ± 0,056
intestine/blood ratio ([1]; 4 h): 4,08 ± 0,599
kidney/blood ratio ([1]; 4 h): 8,03 ± 0,813
liver/blood ratio ([1]; 4 h): 5,21 ± 0,519
lungs/blood ratio ([1]; 4 h): 8,77 ± 0,838
muscle/blood ratio ([1]; 4 h): 1,24 ± 0,153
pancreas/blood ratio ([1]; 4 h): 2,70 ± 0,300
plasma/blood ratio ([1]; 4 h): 0,94 ± 0,058
spleen/blood ratio ([1]; 4 h): 2,07 ± 0,256
stomach/blood ratio ([1]; 4 h): 4,34 ± 0,924
submaxillary glands/blood ratio ([1]; 4 h): 5,44 ± 0,297
tumor/blood ratio ([1]; 4 h): 2,68 ± 0,757
brain/blood ratio ([1]; 6 h): 0,44 ± 0,060
eye/blood ratio ([1]; 6 h): 0,36 ± 0,023
intestine/blood ratio ([1]; 6 h): 1,97 ± 0,112
kidney/blood ratio ([1]; 6 h): 2,01 ± 0,252
liver/blood ratio ([1]; 6 h): 1,43 ± 0,439
lungs/blood ratio ([1]; 6 h): 1,82 ± 0,187
muscle/blood ratio ([1]; 6 h): 0,24 ± 0,056
pancreas/blood ratio ([1]; 6 h): 0,76 ± 0,050
plasma/blood ratio ([1]; 6 h): 1,16 ± 0,016
spleen/blood ratio ([1]; 6 h): 0,62 ± 0,045
stomach/blood ratio ([1]; 6 h): 3,78 ± 0,400
submaxillary glands/blood ratio ([1]; 6 h): 5,16 ± 0,853
tumor/blood ratio ([1]; 6 h): 0,65 ± 0,025
brain/blood ratio ([1]; 8 h): 1,31 ± 0,180
eye/blood ratio ([1]; 8 h): 0,60 ± 0,040
intestine/blood ratio ([1]; 8 h): 3,30 ± 0,269
kidney/blood ratio ([1]; 8 h): 3,72 ± 0,573
liver/blood ratio ([1]; 8 h): 6,03 ± 0,678
lungs/blood ratio ([1]; 8 h): 3,69 ± 0,585
muscle/blood ratio ([1]; 8 h): 0,74 ± 0,216
pancreas/blood ratio ([1]; 8 h): 1,22 ± 0,151
plasma/blood ratio ([1]; 8 h): 0,19 ± 0,020
spleen/blood ratio ([1]; 8 h): 1,28 ± 0,158
stomach/blood ratio ([1]; 8 h): 5,35 ± 0,355
submaxillary glands/blood ratio ([1]; 8 h): 3,65 ± 0,266
tumor/blood ratio ([1]; 8 h): 1,17 ± 0,314
brain/blood ratio ([1]; 12 h): 0,74 ± 0,072
eye/blood ratio ([1]; 12 h): 0,88 ± 0,081
intestine/blood ratio ([1]; 12 h): 3,20 ± 0,502
kidney/blood ratio ([1]; 12 h): 5,46 ± 0,217
liver/blood ratio ([1]; 12 h): 13,34 ± 0,462
lungs/blood ratio ([1]; 12 h): 3,04 ± 0,401
muscle/blood ratio ([1]; 12 h): 0,45 ± 0,111
pancreas/blood ratio ([1]; 12 h): 5 ± 0,310
plasma/blood ratio ([1]; 12 h): 0,16 ± 0,037
spleen/blood ratio ([1]; 12 h): 3,68 ± 0,493
stomach/blood ratio ([1]; 12 h): 7,03 ± 0,728
submaxillary glands/blood ratio ([1]; 12 h): 2,52 ± 0,236
tumor/blood ratio ([1]; 12 h): 1,11 ± 0,059
brain/blood ratio ([1]; 24 h): 0,22 ± 0,029
eye/blood ratio ([1]; 24 h): 0,94 ± 0,213
intestine/blood ratio ([1]; 24 h): 1,16 ± 0,141
kidney/blood ratio ([1]; 24 h): 4,64 ± 0,328
liver/blood ratio ([1]; 24 h): 21,88 ± 1,493
lungs/blood ratio ([1]; 24 h): 1,72 ± 0,182
muscle/blood ratio ([1]; 24 h): 0,27 ± 0,043
pancreas/blood ratio ([1]; 24 h): 1,40 ± 0,120
plasma/blood ratio ([1]; 24 h): 1,07 ± 0,154
spleen/blood ratio ([1]; 24 h): 11,17 ± 1,75
stomach/blood ratio ([1]; 24 h): 2,28 ± 0,165
submaxillary glands/blood ratio ([1]; 24 h): 1,81 ± 0,169
tumor/blood ratio ([1]; 24 h): 0,79 ± 0,092
tumor/blood ratios compared with A ([1]; Dau): not significantly different

CCN(CC)CCNC(=O)c1ccc(I)cc1 [Derivative A, N-(2-diethylaminoethyl) 4-iodo benzamide]
tumor image [2]: not obtained any image
tumor image [3]: not obtained any image
LD 0 [4]: 60 mg/kg
LD 100 [4]: 150 mg/kg
LD50 [5]: 90 mg/kg
